Experimental data reported in article PMC3661926 (Acta Neuropathologica, 2013).
Read-outs that look alike come from different tables or passages of the source.

Experiments:
[1] = molecular target: PrP^Sc (RML prion strain) (Mus musculus, UniProt P04925); assay: biochemical; details: read-out: % inhibition PrP^Sc PMCA
[2] = system: RML scrapie; assay: whole plant or invertebrate; type: in vivo, C57BL/6 mice; details: for inhibition in vivo at 1 mg: in Mus musculus, po, 2880 h, read-out: % inhibition PrP^Sc in vivo (a); for % inhibition PrP^Sc in vivo (b): PrP^Sc level in spleen 35 days after i.p. infection, 34 days treatment with 1 mg compound oral in peanut butter
[3] = system: actin; type: biochemical
[4] = molecular target: T1, α-synuclein (α-syn) (Homo sapiens, UniProt P37840); assay: α-synuclein in vitro oligomer formation assay (SIFT); type: biochemical; details: read-out: % inhibition α-syn SIFT
T1 construct: made in house
Procedure: Expression and purification of recombinant wild-type α-synuclein (α-syn) was performed according to established protocols. Fluorescent labelling of α-syn and quality control were performed as described.
The α-syn aggregation assay was conducted with minor modifications as published previously. […] The concentration of α-syn was approximately 20 nM. In all experiments, α-syn aggregation was induced by final concentrations of 1 % DMSO and 10 μM FeCl3. Compounds were diluted into the assay mixture from 10-fold stock solutions containing 10 % DMSO (v/v), resulting in a final concentration of 1 % DMSO in all samples. “Low control” measurements for threshold setting were obtained without FeCl3 and DMSO. Experiments were started by diluting the 5-fold stock solution of fluorescently labelled α-syn in 50 mM Tris-buffer, pH 7.0, containing 1 % DMSO, 10 μM FeCl3 and compounds in concentrations ranging from 1–10 μM.
Aggregation of α-syn was measured by scanning for intensely fluorescent targets (SIFT). […] Excitation power was 200 μW at 488 nm and 300 μW at 633 nm. Measurement time was 10 s. Scanning parameters were set to 100 μm scan path length, 50 Hz beam scanner frequency, and 2,000 μm positioning table movement. The frequency of specific combinations of “green” and “red” photon counts was recorded in a two-dimensional intensity distribution histogram, as described previously. Evaluation of SIFT data in two-dimensional intensity distribution histograms was performed by summing up the numbers of photons from high intensity bins using a two-dimensional SIFT software module (Evotec-Technologies). For threshold setting, non-aggregated reference samples were used. The photon count in bins above the threshold was considered aggregate signal.

[5] = system: cultured human peripheral lymphocytes
[6] = system: 139A; details: mouse, in vivo, cited from earlier work
[7] = mouse, in vivo, po
[8] = system: RML; details: mouse, in vivo, cited from earlier work
[9] = in vivo; cited from earlier work
[10] = system: prion; details: cited from earlier work
[11] = system: M1000; details: mouse, in vivo, ip; cited from earlier work
[12] = system: prion strains RML, ME7, 301C, sCJD, vCJD; type: biochemical, mouse and human; details: 1 μl of 10 mM compound solution in DMSO
[13] = relative to high control, 10 μM compound, 1 % DMSO, 10 μM FeCl3

Chain of PrP^Sc (RML prion strain) (P04925 23-230 limits assumed): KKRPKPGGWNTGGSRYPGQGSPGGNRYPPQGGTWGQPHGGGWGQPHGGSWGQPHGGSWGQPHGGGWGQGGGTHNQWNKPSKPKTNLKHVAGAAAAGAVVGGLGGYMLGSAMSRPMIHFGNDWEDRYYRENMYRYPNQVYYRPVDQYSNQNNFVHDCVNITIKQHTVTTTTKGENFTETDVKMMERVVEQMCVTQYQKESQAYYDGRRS

Compound | inhibition at 10 µM [1] [%] | inhibition in vivo at 1 mg [2] [%] | inhibition at 10 µM [4, 13] [%] | conc. brain [7] | other results
Oc1ccc(-c2cc(-c3cccc(Br)c3)n[nH]2)cc1O [anle138c] | 19 | < 10 | 99 | – | effect on actin polymerization [3]: do not affect actin polymerization
CO[C@@]12[C@H](COC(N)=O)C3=C(C(=O)C(C)=C(N)C3=O)N1C[C@@H]1N[C@@H]12 [Mitomycin C, reference compound] | – | – | – | – | chromosomal damage by positive controls [5]: significant damage
Br.Oc1cc(-c2cc(-c3cc(Br)cc(Br)c3)n[nH]2)cc(O)c1O [anle145c] | – | – | – | – | effect on actin polymerization [3]: do not affect actin polymerization
CC[C@H](C)C(=O)O[C@H]1C[C@H](O)C=C2C=C[C@H](C)[C@H](CC[C@@H](O)C[C@@H](O)CC(=O)O)[C@H]21 [Pravastatin] | – | – | – | – | Median/Mean* Survival Therapy ([6]; po, 200 mg/kg): 194 days; difference of survival therapy vs control ([6]; po, 200 mg/kg): 17 days
Ic1cccc(-c2cc(-c3ccc4c(c3)OCO4)n[nH]2)c1 [anle197b] | 16 | – | < 10 | – | % inhibition PrP^Sc in vivo (b) [2]: <10^b %
Brc1cccc(-c2c[nH]c(-c3ccc4c(c3)OCO4)n2)c1 [sery345] | < 10 | < 10 | 57 | 16.6 nmol/g | –
CC(CN(C)C)CN1c2ccccc2CCc2ccccc21 (centres unmarked) [Trimipramine] | – | – | – | – | Median/Mean* Survival Therapy ([6]; ip, 10 mg/kg): 210 days; difference of survival therapy vs control ([6]; ip, 10 mg/kg): 40 days
OCCN1CCN(CCCN2c3ccccc3Sc3ccc(C(F)(F)F)cc32)CC1 [Fluphenazine] | – | – | – | – | Median/Mean* Survival Therapy ([6]; ip, 10 mg/kg): 205 days; difference of survival therapy vs control ([6]; ip, 10 mg/kg): 35 days
Nc1ccc(-c2cc(-c3ccc(Cl)cc3)[nH]n2)cc1 | – | – | – | – | melting point: 213 to 214 °C
C=CC[C@@H]1/C=C(\C)C[C@H](C)C[C@H](OC)[C@H]2O[C@@](O)(C(=O)C(=O)N3CCCC[C@H]3C(=O)O[C@H](/C(C)=C/[C@@H]3CC[C@@H](O)[C@H](OC)C3)[C@H](C)[C@@H](O)CC1=O)[C@H](C)C[C@@H]2OC [Tacrolimus] | – | – | – | – | Median/Mean* Survival Therapy ([8]; ip, 5 mg/kg): 35 days; difference of survival therapy vs control ([8]; ip, 5 mg/kg): 9 days
Fc1cccc(-c2nc(-c3ccc4c(c3)OCO4)no2)c1 | – | – | – | – | melting point: 161 °C
Brc1ccc(-c2cc(-c3ccc4c(c3)OCO4)n[nH]2)cc1 [sery378b] | 34 | 39 | 74 | 26 nmol/g | –
FC(F)(F)c1cccc(-c2cc(-c3ccc4c(c3)OCO4)n[nH]2)c1 [anle236b] | < 10 | 12 | < 10 | 39.3 nmol/g | –
CCN(CC)CCCC(C)Nc1c2ccc(Cl)cc2nc2ccc(OC)cc12 (centres unmarked) [quinacrine] | – | – | – | – | concentrations reached in the brain [9]: does not reach sufficient concentrations in the brain; anti-prion activity in cell culture [10]: high anti-prion activity in cell culture
CN(C)c1ccc(-c2cc(-c3cccc(Br)c3)n[nH]2)cc1 [anle253b] | 80 | 59 | 50 | 2.1 nmol/g | effect on actin polymerization [3]: do not affect actin polymerization
Fc1ccc(F)c(-c2cc(-c3ccc4c(c3)OCO4)n[nH]2)c1 | – | – | – | – | melting point: 225 to 226 °C
Clc1cccc(-c2cc(-c3ccc4c(c3)OCO4)n[nH]2)c1 [sery335b, 3-(1,3-Benzodioxol-5-yl)-5-(3-chlorophenyl)-1H-pyrazole] | 52 | 68 | 90 | 29.6 nmol/g | % inhibition PrP^Sc in vivo (b) [2]: 46%
Brc1cccc(-c2cc(-c3ccc4[nH]cnc4c3)n[nH]2)c1 [sery417] | 51 | < 10 | < 10 | 0 nmol/g | –
CCC(C)(C)C(=O)O[C@H]1C[C@@H](C)C=C2C=C[C@H](C)[C@H](CC[C@@H]3C[C@@H](O)CC(=O)O3)[C@H]21 [Simvastatin] | – | – | – | – | Median/Mean* Survival Therapy ([8]; po, 20 mg/kg): 167 days; difference of survival therapy vs control ([8]; po, 20 mg/kg): 19 days
O=P1(N(CCCl)CCCl)NCCCO1 (centres unmarked) [cyclophosphamide, reference compound] | – | – | – | – | chromosomal damage by positive controls [5]: significant damage
Cl.Nc1ccc(-c2cc(-c3cccc(Br)c3)[nH]n2)cc1 [sery384] | 55 | < 10 | – | 13,9 nmol/g | inhibition at 10 µM [4]: 99%
c1cc2c(cc1-c1cc(-c3ccc4c(c3)OCO4)[nH]n1)OCO2 [anle232b] | 26 | 23 | < 10 | – | –
Brc1cccc(-c2cc(-c3ccc4c(c3)CCO4)[nH]n2)c1 [sery312b] | 42 | 13 | – | 3,6 nmol/g | inhibition at 10 µM [4]: < 10%
Fc1cccc(-c2cc(-c3ccc4c(c3)OCO4)n[nH]2)c1 [anle186b] | 48 | – | < 10 | 31.1 nmol/g | % inhibition PrP^Sc in vivo (c) ([2]; PrP^Sc level in brain 106 days after i.c. infection, treatment 24 days: 14 days i.p. 0.84 mg, 2 × 5 days oral gavage 1 mg): 30^c %; change of PrPSc levels in brain, mixed application scheme ([2]; from 80 dpi: 14 days i.p. 0.84 mg, 2 x 5 days gavage 1 mg, measured at 95 and 106 dpi): slight reduction of PrPSc accumulation
COc1cc(/C=C/C(=O)CC(=O)/C=C/c2ccc(O)c(OC)c2)ccc1O [Curcumin] | – | – | – | – | Median/Mean* Survival Therapy ([6]; po, 50 mg/kg): 208 days; difference of survival therapy vs control ([6]; po, 50 mg/kg): 12 days
Na2CaCDTA | – | – | – | – | Median/Mean* Survival Therapy [11]: 189 days; difference of survival therapy vs control [11]: 20 days
Brc1ccccc1-c1cc(-c2ccc3c(c2)OCO3)n[nH]1 [anle234b] | < 10 | < 10 | < 10 | 32.1 nmol/g | inhibitory activity in PMCA, all prion strains tested [12]: inactive
O=[N+]([O-])c1ccc(-c2cc(-c3cccc(Cl)c3)n[nH]2)cc1 | – | – | – | – | melting point: 275 to 276 °C
